Source: article PMC9897032, “How Many Sirtuin Genes Are Out There? Evolution of Sirtuin Genes in Vertebrates With a Description of a New Family Member” (Molecular Biology and Evolution, 2023)

Target: T1, human SIRT3 (Homo sapiens, UniProt Q9NTG7)
T1 construct: recombinant enzyme supplied with Abcam fluorometric SIRT3 activity kit
T1 sequence (Q9NTG7 102-399): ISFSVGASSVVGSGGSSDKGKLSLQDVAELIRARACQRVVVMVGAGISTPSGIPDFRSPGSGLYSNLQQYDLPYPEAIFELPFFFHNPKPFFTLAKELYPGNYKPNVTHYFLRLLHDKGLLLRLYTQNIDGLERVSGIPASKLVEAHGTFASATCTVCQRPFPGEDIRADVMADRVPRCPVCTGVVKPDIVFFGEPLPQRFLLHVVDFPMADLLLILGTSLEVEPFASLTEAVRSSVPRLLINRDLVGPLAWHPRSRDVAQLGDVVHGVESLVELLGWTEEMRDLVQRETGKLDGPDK
Assay: fluorometric deacetylation assay, acetylated substrate peptide (Abcam ab156067)
Format: biochemical
Conditions: activator; 37 °C; NAD+ dependent assay

fold increase in activity at 100 μM: 1.6 ± 0.1 fold
SMILES: Oc1ccc(/C=C/c2cc(O)cc(O)c2)cc1 [REV, resveratrol]
